Here are results for 6 molecules from paper PMC8268987, “In Search of Effective Anticancer Agents—Novel Sugar Esters Based on Polyhydroxyalkanoate Monomers” (International Journal of Molecular Sciences, 2021).

For data set [1], the system named is HTB140 cells. As to the kind of experiment: Nuclei roundness by image analysis, HTB140. The data set is classed as cell-based, human. As to conditions: 0.0625 mg mL^–1; for nuclei circularity index: HTB140, after the first 24 h. As to the method:
(§1) Cellular studies 12-well plates were used, cell density 3 × 10^5 per well. After 24 h and 48 h of incubation with tested compounds (0.0625 mg mL^–1), the samples were fixed according to standard protocol. Tubulin (green; AlexaFluor-488 mouse anti-β-tubulin IgG; BD Biosciences, San Jose, CA, USA, Pharminogen; cat. 558605), vimentin (infra-red; I: rabbit-anti-vimentin IgG; GeneTex, Irvine, CA, USA; GTX100619; II: chicken-anti-rabbit-AlexaFluor647 IgG; ThermoFisher, Waltham, MA, USA) and counterstained nuclei (blue; Hoechst 33258; Sigma-Aldrich, Darmstadt, Germany) and F-actin (red; AlexaFluor546-phalloidin; ThermoFisher, Waltham, MA, USA). Next, the samples were washed 5 times with deionized water and prepared for imaging with Fluorescent Mounting Medium (Dako Omnis, Agilent, Santa Clara, CA, USA). Microscopic measurements and observations were carried out with the use of fluorescent techniques performed on Zeiss Axio Observer Z.1 microscope with LSM 710 module (Carl Zeiss Microscopy GmbH Carl-Zeiss-Promenade 10, 07745 Jena, Germany). Image acquisition, processing, deconvolution and analysis were performed using Zeiss ZEN Black software ver. 8.1.0.484 and FluoRender 2.21.0. An oil immersion 40×/NA:1.4 lens was used for observations. Parameters used for acquisition of cell morphology were: nucleus—blue channel (405 nm); microtubular network—green channel (488 nm); Actin—red channel (546 nm); vimentin—far red channel (647 nm).

The subject of data set [2] is normal (control) and cancer cell lines. As to the kind of experiment: MTT cytotoxicity assay, summary statements over the tested cell lines. The data set is classed as cell-based, human. As to conditions: data not shown. A general note: Tetrazolium assays rely on reduction of a dye to a coloured formazan, in cell work by metabolically active cells.
The test system of data set [3] is HaCAT human skin keratynocytes.
Procedure: (§3) The following cell lines were used: human prostate cancer cells from metastases to the brain DU145 (ATCC® HTB-81™, Manassas, Virginia); healthy human prostate epithelial cell line as a control (PNT2; Sigma-Aldrich, Darmstadt, Germany); human melanoma Hs 294T (ATCC® HTB-140™, Manassas, Virginia); human epidermal keratinocytes (HaCaT) HEK001 (ATCC® CRL-2404™, Manassas, Virginia); and normal human skin fibroblasts BJ (ATCC® CRL2522™) as controls. The cells were cultured in 37 °C with humidified atmosphere enriched with 5% CO2 in appropriate cell culture media: DMEM F12Ham (Sigma-Aldrich, Darmstadt, Germany) + 5% FBS (Thermo Fisher Scientific; Gibco; Waltham, MA, USA); RPMI-1640 (Sigma-Aldrich, Darmstadt, Germany) + 10% FBS (Thermo Fisher Scientific; Gibco; Waltham, MA, USA); DMEM high glucose (Sigma-Aldrich) + 10% FBS (Thermo Fisher Scientific; Gibco; Waltham, MA, USA); DMEM low glucose (Sigma-Aldrich, Darmstadt, Germany) + 10% FBS (Thermo Fisher Scientific; Gibco; Waltham, MA, USA). All media contained a penicillin/streptomycin (Sigma-Aldrich, Darmstadt, Germany) cocktail.
(§4) For the determination of the cytotoxic effect of tested compounds, normal (control) and cancer cell lines cells were tested at a concentration of 2.5 × 10^4 cells cm^–^2 in appropriate culture medium into 96 well microplates (VWR, Radnor, PA, USA). Cells were preincubated with four different concentrations of tested compounds: 0.5, 0.25, 0.125 and 0.0625 mg mL^–1 for 24 h, 72 h and 120 h in cell incubator. After the incubation, MTT labelling reagent (final concentration 0.5 mg mL^–1) and solubilizing solution were added according to the protocol. The samples absorbance was measured using a microplate reader (Multiscan FC; Thermo Fisher Scientific, Waltham, MA, USA) by 570 nm wavelength, 620 nm for reference.
The subject of data set [4] is HSF human skin fibroblasts. As to the kind of experiment: MTT cytotoxicity assay, HSF (control). The settings on record: 72 h.
Procedure: as §3, §4
Data set [5] deals with DU145 prostate cancer cells. As to the kind of experiment: MTT cytotoxicity assay, DU145.
Procedure: as §3, §4
In data set [6] the test system is PNT2 prostate epithelium cells. As to the kind of experiment: MTT cytotoxicity assay, PNT2 (control).
Procedure: as §3, §4
Data set [7] relates to HaCAT human skin keratynocytes. As to the kind of experiment: MTT cytotoxicity assay, HaCAT (control). As to conditions: 72 h.
Procedure: as §3, §4
In data set [8] the test system is HSF human skin fibroblasts.
Procedure: as §3, §4
For data set [9], the system named is HTB140 human skin melanoma cells. As to the kind of experiment: MTT cytotoxicity assay, HTB140.
Procedure: as §3, §4
Data set [10] deals with DU145 cells. As to the kind of experiment: Nuclei roundness by image analysis, DU145. The data set is classed as cell-based, human. As to conditions: DU145, after 48 h, 0.0625 mg mL^–1. As to the method:
as §1, with “Parameters used for acquisition of cell morphology were: nucleus—blue channel (405 nm); microtubular network—green channel (488 nm); Actin—red channel (546 nm); vimentin—far red channel (647 nm).” left out

The test system of data set [11] is HTB140 cells. As to the kind of experiment: Transmigration assay (Boyden's chamber), HTB140. Format: cell-based, human. The settings on record: HTB140, 96 h, 0.0625 mg mL^–1, relative to sugar control. How it is done:
(§2) Transmigration assay was performed using 24-well glass-bottom plate (Eppendorf) containing microporous membranes in Boyden’s chamber (Corning; pore diameter: 8 μm; membrane diameter: 6.5 mm). Native DU145 and HTB140 cells were seeded at density of 3 × 10^5 cells per membrane with tested compounds (0.0625 mg mL^–1) and left for 48 and 96 h for transmigration. The transmigrating cells were fixed with 3.7% formaldehyde and counted. The result is presented as a reference to the rate of cell proliferation in the corresponding compound.

The subject of data set [12] is DU145 cells. As to the kind of experiment: Transmigration assay (Boyden's chamber), DU145. Format: cell-based, human. The settings on record: DU145, 96 h, 0.0625 mg mL^–1, transmigration/proliferation ratio relative to sugar control. How it is done: as §2
Data set [13] relates to Jurkat (Human T-cell leukemia). Further details: method as in doi:10.1002/app.47192, PMID 29904629. As to conditions: cited from earlier work.

Read-outs that look alike come from different tables or passages of the source.

Regarding `OC[C@H]1OC(O)[C@H](O)[C@@H](O)[C@@H]1O` (stereo partly drawn) [glu, α-D-glucopiranose, reference compound], the nuclei circularity index result with HTB140 cells [1] is recorded as “smallest round nuclei”. Further, in data set [2], the “cytotoxicity in the MTT test (in words)” value was “low cytotoxicity”.
As for “mixture of (3R)-hydroxynonanoate glucose esters and (3R)-hydroxyheptanoate glucose esters [mPHN-glu]”, in data set [3], the midpoint of inhibition, the IC50, lay at 1430 µM.
Regarding galactose nonanoic ester [C9-gal], the IC50 in data set [4] stood at 1560 µM; in data set [5] (DU145, 24 h) it was 1560 µM; in [5] (DU145, 72 h), 780 µM; in [5] (DU145, 120 h) it was 1560 µM; in data set [6] (PNT2, 24 h), 2390 µM; in [6] (PNT2, 72 h) it was 1230 µM. Further, the IC50 in data set [6] (PNT2, 120 h) came to 2360 µM; in data set [7] it was 1560 µM; in data set [8] it was 1560 µM; in data set [9] (HTB140, 24 h), 1660 µM; in [9] (HTB140, 72 h), 1560 µM; in data set [9] (HTB140, 120 h) it was 1560 µM. In data set [3], this molecule came in with an IC50 of 1560 µM.
Turning to lactose nonanoic ester [C9-lac], in the data set on HTB140 cells [1], the nuclei circularity index result was “highest circularity index”. Further, the “change of nuclei shape (decrease in roundness index)” value with HTB140 cells [1] (HTB140, after the next 24 h (48 h)) is “biggest change”. Further, the “change of nuclei roundness” value in the data set on DU145 cells [10] is given as “decrease in nucleus roundness index”. Moreover, the decrease of transmigration with HTB140 cells [11] is recorded as 16%. In addition, the IC50 in [4] amounted to 920 µM; in [5] (DU145, 24 h), 920 µM; in data set [5] (DU145, 72 h), 840 µM; in data set [5] (DU145, 120 h), 460 µM; in data set [5] (read-out: Cytotoxicity of SFAE determined by MTT assay (IC50), Supplementary Table 2, DU145, 72 h, standard deviation on line d below) it was 837 µM; in data set [5] (read-out: Cytotoxicity of SFAE determined by MTT assay (IC50), Supplementary Table 2, DU145, 120 h, standard deviation on line d below), 460 µM. Besides, the IC50 in [6] (PNT2, 24 h) turned out to be 1710 µM; in [6] (PNT2, 72 h), 920 µM; in data set [6] (PNT2, 120 h), 1740 µM; in data set [6] (read-out: Cytotoxicity of SFAE determined by MTT assay (IC50), Supplementary Table 2, PNT2, 24 h, standard deviation on line d below) it was 1710 µM; in data set [6] (read-out: Cytotoxicity of SFAE determined by MTT assay (IC50), Supplementary Table 2, PNT2, 120 h, standard deviation on line d below) it was 1740 µM; in data set [7] it was 920 µM. Further, the IC50 in data set [9] (HTB140, 24 h) was determined as 620 µM; in data set [9] (HTB140, 72 h), 920 µM; in data set [9] (HTB140, 120 h), 810 µM; in data set [9] (read-out: Cytotoxicity of SFAE determined by MTT assay (IC50), Supplementary Table 2, HTB 140, 24 h, standard deviation on line d below), 622 µM; in [9] (read-out: Cytotoxicity of SFAE determined by MTT assay (IC50), Supplementary Table 2, HTB 140, 120 h, standard deviation on line d below), 805 µM. The reduction of transmigration in the data set on DU145 cells [12] was 25%.
Take octanoic acid glucose ester: in [13], the IC50 was 120 µM.
As for `O=C[C@H](O)[C@@H](O)[C@@H](O)[C@H](O)CO` [gal, β-d-galactopyranose, reference compound], the nuclei circularity index result in the data set on HTB140 cells [1] is on record as “smallest round nuclei”. Besides, the “cytotoxicity in the MTT test (in words)” value in data set [2] is “low cytotoxicity”.

A word on the IC50: it is the point on the concentration scale where inhibition reaches its midpoint.
